Source: patent publication US5338548A, “Method for increasing the storage stability of physostigmine” (priority 1993, dated 1994)
Values joined by “and” are separate entries in the source; they are usually repeats but may differ in a detail not shown here. Equal entries are not always repeated. “Also recorded” adds a separate entry of the source.

Assays:
[1] = Stability of Physostigmine Free Base in Aqueous Solution (and in ethanol, isopropyl myristate), HPLC; assay type: physicochemical
Method: Relative stability of physostigmine free base in neutral or alkaline solution was determined as follows. Methanolic solution of physostigmine free base was acidified with a few drops of hydrochloric acid to lower the pH to about 3-6. […] Analysis was performed using HPLC Nova Pak 4-C18 column and a mobile phase consisting of:
0.63 g 85% Phosphorous Acid
0.96 g Sodium pentasulphonate
In the same manner, stability of physostigmine free base in neutral or slightly acidified water was determined and is shown in FIG. 2. […] In ethanol solution, 5% of the physostigmine free base was lost after 7 days and 10% after 27 days. At this rate of degradation, a patch would have lost 72% of its active ingredient in one year and 92% in two years.

[2] = Stability of Physostigmine Free Base in Polymer Matrix (patch storage, HPLC recovery); assay type: physicochemical; settings: for Weight of Physostigmine free base Recovered: polyurethane patch, n = 3
Method: Increased stability of physostigmine free base in polymer matrices over solutions is shown in the following experiments. Patches containing physostigmine free base in a polymer matrix were prepared by dissolving 18 g of a polyether based polyurethane produced by Dow under the name Pellethane™ grade 2363-80AE, 2.0 g physostigmine free base and 2.0 g isopropyl myristate in 80 g THF. The solution was allowed to stand until clear. A second identical lot of polymer/drug solution was prepared containing 0.02 g of acetyl cystine. Clear solutions were cast onto the reverse side of a polyester-based release liner available from 3M Company of Minneapolis under the trade name Scotch™ 1002. After evaporation of the THF solvent, the liquid cast film of 2000 μm produced a dry matrix film 200-230 μm thick. Patches with an area of 7.9 cm^2 were cut from these laminated structures, packaged in polyethylene foil pouches and stored at room temperature and at 45° C.
Three patches from each lot were tested for physostigmine free base content immediately after manufacture and after 7 and 25 days of storage at room temperature and at 45° C. Once the backing was removed from the patch, the drug-containing film was weighed and then dissolved in 25 g of THF, followed by dilution with 25 g on methanol. Precipitated Pellethane™ was filtered from the solution before injection into the HPLC. Average amounts of physostigmine free base recovered from the patches, with and without acetyl cysteine, are given in Table I. Theoretical drug loadings were 17.2 and 16.2 mg for the stabilized and unstabilized patches, respectively. Scatter in the weight data can be attributed to variation in film weights and analytical errors amounting to as much as ±10%.

[3] = tested on: skin of rabbits; test: In Vivo Test of Physostigmine Free Base Patches (rabbit skin flux, 23 hours)
Method: Pellethane™ 2363-80AE (24.4 g) was added to a solution of 101.3 g of THF containing 2.903 g of physostigmine free base and 2.951 g of isopropyl myristate and stirred until a clear solution was formed. After evaporation of the THF solvent, the liquid cast film of 2000 μm produced a dry matrix film 180-230 μm thick. A solution of Avery adhesive 460, containing 10 wt % isopropyl myristate was cast on the drug/polymer matrix film to produce an adhesive layer approximately 801 μm thick. The film was finally overlaid with a release liner film 1022 available from 3M Company and patches with an area of 7.92 cm^2 were cut from the laminated structure. These patches were weighed, heat sealed into polyethylene-foil pouches and stored until use.
The patches were then placed on the skin of rabbits from which the hair had been carefully clipped, after 23 hours, the patches were removed and the in vivo skin fluxes determined and summarized in Table II.

[4] = tablets, oral dosage; cited from earlier work
[5] = tested on: tardive dyskinesia; settings: American Journal of Psychiatry, 134(7), 769-774; cited from earlier work
[6] = tested on: long-term memory; settings: Davis et al., Science 201, 272 (1978); cited from earlier work
[7] = tested on: skeletal muscle contraction; settings: background, myasthenia gravis; cited from earlier work
[8] = systemic use; cited from earlier work
[9] = individual patch (patch 1-12), 23 hours on rabbit skin

CNC(=O)Oc1ccc2c(c1)[C@]1(C)CCN(C)[C@@H]1N2C [Physostigmine free base]
degraded at 168 h ([1]; ethanol solution, after 7 days, read-out: physostigmine free base lost in ethanol solution): 5% | degraded at 648 h ([1]; ethanol solution, after 27 days, read-out: physostigmine free base lost in ethanol solution): 10% | appearance of degradation (pink solution, rubreserine) ([1]; methanolic solution acidified with HCl to pH about 3-6, after one or two hours): became pink due to accumulation of the degradation product rubreserine; also recorded: appearance of degradation products of the pink solution | loss of initial drug in neutral solution ([1]; neutral water, within 30 days, same storage conditions, FIG. 2): degrades rapidly with more than half of the initial drug gone | stability in slightly acidified water ([1]; room temperature, pH 3, FIG. 2): more stable, and slightly pink | rate of degradation in ethanol and isopropyl myristate ([1]; solvents ethanol and isopropyl myristate, compared with unbuffered and acidified water): slower than with unbuffered water but faster than with acidified water | discoloration of patches ([2]; 25 days at 45° C.): slightly discolored | Weight of Physostigmine free base Recovered ([2]; No Preservative, 45° C., 0 days): 15.0 mg | Weight of Physostigmine free base Recovered ([2]; No Preservative, 45° C., 7 days): 16.8 mg | Weight of Physostigmine free base Recovered ([2]; No Preservative, 45° C., 25 days): 18.5 mg | Weight of Physostigmine free base Recovered ([2]; No Preservative, Room Temperature, 0 days): 15.0 mg | Weight of Physostigmine free base Recovered ([2]; No Preservative, Room Temperature, 7 days): 16.5 mg | Weight of Physostigmine free base Recovered ([2]; No Preservative, Room Temperature, 25 days): 16.8 mg | Weight of Physostigmine free base Recovered ([2]; With Preservative, 45° C., 0 days): 15.1 mg | Weight of Physostigmine free base Recovered ([2]; With Preservative, 45° C., 7 days): 16.8 mg | Weight of Physostigmine free base Recovered ([2]; With Preservative, 45° C., 25 days): 16.8 mg | Weight of Physostigmine free base Recovered ([2]; With Preservative, Room Temperature, 0 days): 15.1 mg | Weight of Physostigmine free base Recovered ([2]; With Preservative, Room Temperature, 7 days): 17.3 mg | Weight of Physostigmine free base Recovered ([2]; With Preservative, Room Temperature, 25 days): 16.8 mg | additional peaks in HPLC analysis ([2]; patches stored 25 days at 45° C.): no additional peaks were observed | physostigmine free base loss during storage ([2]; polyurethane patches, room temperature or 45° C., up to 25 days): no measurable physostigmine free base loss | Drug Delivered ΔMass ([3]; Average of patches 1-12): 14.0 mg | Drug Delivered ΔMass (%) ([3]; Average of patches 1-12): 69% | Drug Remaining in Patch ([3]; Average of patches 1-12): 6.3 mg | ΔMass/time ([3]; Average of patches 1-12): 0.61 mg/h | Average Total Flux ([3]; Average of patches 1-12, patch area 7.9 cm^2): 77 μg/cm^2 · hr | Drug Delivered ΔMass [3, 9]: 15.0 mg and 14.0 mg and 15.7 mg and 12.0 mg and 16.0 mg and 12.8 mg and 14.3 mg and 13.7 mg and 15.2 mg and 12.7 mg and 11.8 mg | Drug Delivered ΔMass (%) [3, 9]: 67% and 69% and 70% and 71% and 68% | ΔMass/time [3, 9]: 0.65 mg/h and 0.61 mg/h and 0.68 mg/h and 0.52 mg/h and 0.70 mg/h and 0.56 mg/h and 0.62 mg/h and 0.60 mg/h and 0.66 mg/h and 0.55 mg/h and 0.51 mg/h | Drug Remaining in Patch ([3]; individual patch (patch 1-12), 23 hours on rabbit skin, measured by HPLC): 7.4 mg and 6.8 mg and 7.1 mg and 5.2 mg and 6.7 mg and 6.2 mg and 6.5 mg and 5.7 mg and 4.9 mg | Average Total Flux ([3]; individual patch (patch 1-12), patch area 7.9 cm^2, 23 hours on rabbit skin): 82 μg/cm^2 · hr and 77 μg/cm^2 · hr and 86 μg/cm^2 · hr and 66 μg/cm^2 · hr and 88 μg/cm^2 · hr and 71 μg/cm^2 · hr and 78 μg/cm^2 · hr and 75 μg/cm^2 · hr and 83 μg/cm^2 · hr and 70 μg/cm^2 · hr and 64 μg/cm^2 · hr | drug delivered ([3]; over the 23 hour period): approximately 70% | Average Physostigmine free base flux ([3]; text after Table II): 160 μg/cm^2 ·h

CNC(=O)Oc1ccc2c(c1)[C@]1(C)CCN(C)[C@@H]1N2C [Physostigmine]
drug blood levels for multiple oral doses [4]: typical variations in blood concentration ranging from a maxima above the required level (and possibly in the toxic range) to a minima which may be below the effective dose | therapeutic effects on tardive dyskinesia [5]: positive therapeutic effects on tardive dyskinesia | retrieval of information from long-term memory [6]: improved | storage of information into long-term memory [6]: significantly enhanced storage of information into long-term memory | strength of muscular contraction [7]: increased strength of muscular contraction | therapeutic window [8]: narrow therapeutic window
